Assay results reported in US10561638B2, “Methods for treating dependence” (Biotie Therapies, Inc., priority 2007, dated 2020).

What was measured:
[1] = system: normotensive Wistar-Kyoto rats; assay: Blood pressure in conscious, restrained Wistar-Kyoto rats; format: in vivo; conditions: 10 mg/kg
Description: To summarize together, nepicastat causes a decrease in blood pressure in both SHRs and normotensive rats, though the antihypertensive effect is more pronounced in SHRs.

[2] = system: short-term or working memory in rats; assay: Delayed-matching-to-position (DMTP) test; format: in vivo, Sprague Dawley rats
Method: In the present DMTP study, rats were trained to remember the position of a lever across a scheduled delay of either 0, 8, 16 or 32 s in order to earn food reward. […] Another group of rats received only vehicle treatment throughout the experiment. […] The dependent measures in the present study included percentage of correct choices, the latency to make choice responses and the number of trials which the animals were able to complete during the 70 min test sessions. Changes in the former measure may indicate changes in memory and/or attentional function whereas changes in the latter two measures may be indicative of other non-cognitive effects of the drugs. Matching to position training began next. This and all subsequent training was conducted with the partitions fitted into the operant boxes. The sessions were initially 50 minutes long. Rats were placed in the operant box and the session began when the houselight was illuminated. Following a 30 s intertrial interval (ITI), one of the two levers (the sample lever) was inserted into the chamber. The lever remained inserted into the chamber until a lever-press response occurred. […] As soon as the magazine flap was pressed the magazine light was extinguished and both levers were inserted. […] The magazine light remained on until the flap was pressed. […] A 30 s ITI was initiated before the commencement of a new trial. The lever inserted as the sample lever was semi-randomly determined such that the right and lefthand levers were presented as the sample lever 8 times in a block of 16 trials. Following 24 sessions, the animals were performing the matching to position task with a high degree of accuracy. On Session 25 a variable delay interval was interposed between the depression of the sample lever and presentation of the levers on the choice trial. After a response to the sample lever, the choice levers were inserted following the first flap press occurring after either a 0 s (immediate), 4, 8 or 16 s delay. The order of the four types of trials (0, 4, 8 or 16 s delay) was semi-randomly determined with the constraint that in a 16 trial block, each delay occurred 4 times; twice on a left trial and twice on a right trial. […] The same trial was reinstated following the end of the ITI. From Session 25 onward the time-out period following incorrect choices was omitted and the session length was increased to 70 minutes. […] Due to poor performance at the 64 s delay, however, this delay was not used in any further sessions. On Session 59, delays of 0, 8, 16 and 32 s were used. These delays were used in all subsequent sessions. Only 51 of the 56 rats completed more than 24 trials (correction plus non-correction) during Session 59. These rats were selected and semi-randomly assigned to the following 7 groups such that the groups were matched on performance (percent correct, response latency and number of trials completed): […] Thus, the drug treatments administered to the seven groups during the 11 consecutive days of the present experiment were: The data collected and analyzed in the present DMTP study include 1) the percentage of correct responses; 2) the latency between performance of a response to the sample lever and the performance of the choice response and 3) the total number of correction and non-correction trials completed. The former two dependent measures were collected for the non-correction trials only. […] Two-way analysis of variance (ANOVA) with drug treatment as the between-subjects factor and delay (0, 8, 16 or 32 s) as the within-subjects factor was used to analyze percentage of correct choices and response latency. These analyses were conducted separately for each block of data. Significant interactions were followed by a one-way ANOVA which was conducted at each delay. A significant main effect from a one-way ANOVA was followed by a two-tailed Dunnett's t-test. One-way ANOVA followed by a post hoc Dunnett's test, when appropriate, was used to analyze the mean number of trials completed. […]

[3] = system: left ventricle norepinephrine and dopamine levels; assay: Left ventricle catecholamines after two i.v. doses; format: in vivo, Sprague-Dawley rats; conditions: 15 mg/kg iv x2, left ventricle
Method: The purpose of this study was to determine the effects of intravenous administration of nepicastat (hereafter referred to as nepicastat) on the levels of dopamine and norepinephrine in the left ventricle in Sprague-Dawley rats. Animals received two intravenous (iv) administrations, 12 hours apart, of either vehicle (75% propylene glycol+25% DMSO; 1.0 ml/kg) or 15 mg/kg of nepicastat. Tissue norepinephrine and dopamine levels were measured six hours after the last compound administration.
Sixteen to 17 week old male Sprague-Dawley rats, weighing 300-400 grams, were allowed food and water ad libitum. Animals were weighed and randomly assigned, the afternoon before the study, to one of the following treatment groups (n=10 per group): vehicle (1.0 ml/kg) or nepicastat at 15 mg/kg.
Each rat was dosed iv in the tail vein the afternoon before harvest. The dosing was repeated 12 hours later the following morning. Six hours after the final administration rats were anesthetized with halothane, decapitated, and the left ventricle was rapidly harvested and weighed. The ventricle was placed in 1.0 ml iced 0.4 M perchloric acid. Tissues were immediately frozen in liquid nitrogen and stored at −70° C. Tissue dopamine and norepinephrine concentrations were assayed by high performance liquid chromatography using electrochemical detection.
A one-way analysis of variance (ANOVA) with a main effect for treatment was performed for norepinephrine. A Kruskal-Wallis was performed for dopamine and their ratio primarily due to heterogeneous variances among treatment groups. Subsequent pairwise comparisons between nepicastat treated rats and vehicle were performed using Fisher's LSD test. A Bonferroni adjustment was performed on all p-values to ensure an overall experiment-wise type 1 error rate of 5%.

[4] = system: aortic contractile response to phenylephrine; assay: Aortic contractile response in vitro to phenylephrine after 21 days treatment; format: in vivo, spontaneously hypertensive rats; conditions: 10 mg/kg p.o. daily for 21 days
Description: The aortic contractile response in vitro to phenylephrine is impaired in spontaneously hypertensive rats (SHRs) relative to normotensive Wistar-Kyoto rats.

With `Cl.NCc1c[nH]c(=S)n1[C@H]1CCc2c(F)cc(F)cc2C1` [nepicastat, (S)-5-Aminomethyl-1-(5,7-difluoro-1,2,3,4-tetrahydronaphth-2-yl)-2,3-dihydro-2-thioxo-1H-imidazole hydrochloride] the “decrease in blood pressure 4 hours after dosing” value [1] was −13 mmHg, the all dependent measures ([2]; Block 2) was “no significant effects on any of the dependent measures” and the “latency to perform the choice response vs vehicle” value ([2]; Block 4, 32 s delay, nepicastat 10.0 mg/kg) was “longer latency to perform the choice response”. For the same molecule, the “response latency, number of trials completed” value ([2]; Block 5) was “did not significantly affect”, the choice accuracy ([2]; Block 5, 10 and 30 mg/kg at the 32 s delay) was “marked dose- and delay-dependent impairment in choice accuracy” and the “improvement of DMTP performance” value ([2]; administered alone, 10 days) was “does not appear to induce memory enhancing effects”. For the same molecule, the “reversal of the effects of scopolamine” value ([2]; day 11 scopolamine test) was “did not appear to reverse the effects of scopolamine”, the “days of dosing after which memory-disrupting effects are apparent” value ([2]; rat, in vivo) was 8 days and the “decrease in norepinephrine levels” value [3] was 51%. For the same molecule, the “increase in dopamine levels” value [3] was 472%, the “increase in dopamine/norepinephrine ratio” value [3] was 1117% and the “phenylephrine responsiveness of aorta” value [4] was “restored phenylephrine responsiveness”.
